Tests used:
[1] = system: demyelinated spinal cord lesions in chronic EAE of female Hartley guinea pigs; assay: Spontaneous remyelination in chronic EAE guinea pigs (solochrome-R-cyanin, toluidine blue semithin sections, EM, lesion area analysis); format: in vivo, guinea pig; details: for area of thinly myelinated axons in toluidine blue semithin sections vs saline / electron microscopy of lesioned spinal cord: day 30 of treatment
[2] = system: experimental allergic encephalomyelitis in female Hartley guinea pigs; assay: Chronic EAE in guinea pigs: histological analysis and pathological score of brain and spinal cord; format: in vivo, guinea pig; details: for spinal cord histology after 20 days of treatment (day 60 post immunization) / spinal cord histology after 40 days of treatment (day 80 post immunization): SCR and H-E sections, vs saline
Experimental: Animal Sacrifice and Histological Analysis. Untreated, chronic EAE animals (n=5) were sacrificed on day 40, as well as non-EAE controls (n=5). Following each 10-day treatment interval, 5 animals from each group were sacrificed (0.25 mL sodium pentobarbital), blood samples were collected for FACS analysis (see below), and the brain and spinal cord dissected and sectioned. Three spinal sections were used, corresponding to lumbar, thoracic and cervical regions of the cord. The brain was cut into five transverse sections. The first three proximal sections were combined in one block, and the last two distal sections in another. Tissues were fixed in 10% formalin and embedded in paraffin. […] sections were stained with hematoxylin-eosin (H-E) or solochrome-R-cyanlin (SCR) and evaluated by a blinded observer in each of four categories: (1) meningeal inflammation, (2) perivascular infiltration, (3) encephalitis or (4) myelitis and demyelination (Table 6). The combined pathological score represents the total score (out of a potential 20) from all 5 CNS sections in each animal.
Statistical Analysis. Statistical analysis was performed using SigmaStat v2 software (SPSS Inc.). Clinical scores were assessed using the Mann Whitney rank sum test, while pathological scores were assessed with a two-Way ANOVA. Quantitative abnormalities were compared using Kruskal-Wallis ANOVA on ranks. In each case, p<0.05 was considered significant. A linear regression was performed on the mean cell counts in the spinal cord.

α4β1 = biological target: T1, α4β1 (Homo sapiens, UniProt P05556+P13612); assay: In vitro saturation assay for determining binding of candidate compounds to α4β1 (Jurkat cells in plasma, 15/7 antibody, FACS); format: cell-based; details: guinea pig, 30 mg/kg twice a day subcutaneously
T1 construct: endogenous in cells; host or cells: Jurkat cells
T1 sequence (P13612 34-1032): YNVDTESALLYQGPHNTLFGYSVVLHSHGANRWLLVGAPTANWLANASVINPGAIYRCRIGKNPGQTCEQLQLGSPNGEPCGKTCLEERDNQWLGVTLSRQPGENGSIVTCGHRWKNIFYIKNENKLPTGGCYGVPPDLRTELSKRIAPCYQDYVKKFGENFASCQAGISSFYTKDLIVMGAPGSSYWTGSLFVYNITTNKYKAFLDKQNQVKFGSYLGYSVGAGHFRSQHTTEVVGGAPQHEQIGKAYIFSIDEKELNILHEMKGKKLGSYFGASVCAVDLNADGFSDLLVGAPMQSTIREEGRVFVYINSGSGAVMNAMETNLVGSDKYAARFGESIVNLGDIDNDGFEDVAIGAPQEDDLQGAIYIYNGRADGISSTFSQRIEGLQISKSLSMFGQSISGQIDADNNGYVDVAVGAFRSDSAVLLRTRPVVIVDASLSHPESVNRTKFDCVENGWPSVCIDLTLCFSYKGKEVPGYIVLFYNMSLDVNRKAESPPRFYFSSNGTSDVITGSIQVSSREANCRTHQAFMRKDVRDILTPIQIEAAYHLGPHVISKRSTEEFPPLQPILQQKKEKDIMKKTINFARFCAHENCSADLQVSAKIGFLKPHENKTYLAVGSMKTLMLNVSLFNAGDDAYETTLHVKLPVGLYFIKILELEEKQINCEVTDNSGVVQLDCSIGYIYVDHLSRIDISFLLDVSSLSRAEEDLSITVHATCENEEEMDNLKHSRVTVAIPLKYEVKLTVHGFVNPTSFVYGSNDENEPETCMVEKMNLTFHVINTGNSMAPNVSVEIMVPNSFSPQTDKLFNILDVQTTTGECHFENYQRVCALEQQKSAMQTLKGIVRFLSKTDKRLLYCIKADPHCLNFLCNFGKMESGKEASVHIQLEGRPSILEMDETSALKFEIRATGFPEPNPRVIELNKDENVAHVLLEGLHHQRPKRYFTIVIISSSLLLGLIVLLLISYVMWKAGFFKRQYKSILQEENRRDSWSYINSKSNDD
T1 sequence (P05556 21-798): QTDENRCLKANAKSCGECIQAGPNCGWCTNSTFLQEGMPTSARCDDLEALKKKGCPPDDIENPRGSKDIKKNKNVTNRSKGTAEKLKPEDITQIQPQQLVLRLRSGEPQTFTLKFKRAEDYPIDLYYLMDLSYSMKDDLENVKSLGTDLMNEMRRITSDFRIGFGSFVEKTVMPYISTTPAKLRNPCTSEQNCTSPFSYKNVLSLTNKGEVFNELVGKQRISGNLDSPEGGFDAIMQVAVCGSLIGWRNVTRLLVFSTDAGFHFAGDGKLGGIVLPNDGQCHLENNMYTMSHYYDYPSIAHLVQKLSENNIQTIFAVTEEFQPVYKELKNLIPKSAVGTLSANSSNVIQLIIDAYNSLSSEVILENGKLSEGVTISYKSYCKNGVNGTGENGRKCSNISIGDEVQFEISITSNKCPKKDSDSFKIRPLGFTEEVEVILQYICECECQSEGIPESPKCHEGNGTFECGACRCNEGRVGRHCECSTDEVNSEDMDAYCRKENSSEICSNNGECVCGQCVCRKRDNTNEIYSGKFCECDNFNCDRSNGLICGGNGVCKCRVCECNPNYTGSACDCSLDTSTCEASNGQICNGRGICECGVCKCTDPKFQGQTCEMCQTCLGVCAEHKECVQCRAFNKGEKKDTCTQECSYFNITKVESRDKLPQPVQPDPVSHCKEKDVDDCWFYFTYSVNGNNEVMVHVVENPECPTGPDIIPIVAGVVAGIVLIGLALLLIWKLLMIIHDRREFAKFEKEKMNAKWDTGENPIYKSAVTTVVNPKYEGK
Experimental: The following describes an in vitro assay to determine the plasma levels needed for a compound to be active in the Experimental Autoimmune Encephalomyelitis (“EAE”) model, described in the next example, or in other in vivo models.
Log-growth Jurkat cells are washed and resuspended in normal animal plasma containing 20 μg/ml of the 15/7 antibody (described in the above example).
The Jurkat cells are diluted two-fold into either normal plasma samples containing known candidate compound amounts in various concentrations ranging from 66 μg/mL to 0.01 μg/mL, using a standard 12 point serial dilution for a standard curve, or into plasma samples obtained from the peripheral blood of candidate compound-treated animals.
Cells are then incubated for 30 minutes at room temperature, washed twice with phosphate-buffered saline (“PBS”) containing 2% fetal bovine serum and 1 mM each of calcium chloride and magnesium chloride (assay medium) to remove unbound 15/7 antibody. […]
Cells are washed twice with assay medium and resuspended in the same. They are then analyzed with a standard fluorescence activated cell sorter analysis as described in Yednock et al., J. Bio. […]
The data is then graphed as fluorescence versus dose, e.g., in a normal dose-response fashion. […]

[3] = system: guinea pig model of CP-EAE; assay: Remyelination and functional recovery in guinea pig model of CP-EAE; format: in vivo
Description: The number of lesions showing myelin pallor was divided by the total number of lesions within cross sections of spinal cord taken throughout its length from each animal (FIG. 10) (for the method see Warrington et al., 2000, Proc. Nat'l Acad. Sci. USA 97: 6820-5). […] In contrast, after 20 days of N-[N-(3-pyridinesulfonyl)-L-3,3-dimethyl-4-thiaprolyl]-O-[1-methylpiperazin-4-ylcarbonyl]-L-tyrosine isopropyl ester administration, the frequency of shadow plaques in the spinal cord was increased over saline-treated animals, reaching 68%; after 30 and 40 days, the incidence was 77% and 87%, respectively (p<0.001, 2-way ANOVA with Tukey test).
The overall degree of plaque remyelination in the spinal cord was also measured. […] Total lesion area was determined for each animal by tracing all lesions within all spinal cord sections and summing the areas. Likewise, the total area of remyelination was measured by tracing regions of myelin pallor. FIGS. 10C-F plot the total lesion area against the percentage of remyelination. In saline-treated animals, lesions rarely show any evidence of repair, with means ranging between 2 and 11%, and there were no significant differences over the 40-day treatment period (FIGS. 10C-F). In contrast, after 20, 30 or 40 days of N-[N-(3-pyridinesulfonyl)-L-3,3-dimethyl-4-thiaprolyl]-O-[1-methylpiperazin-4-ylcarbonyl]-L-tyrosine isopropyl ester treatment, the majority of lesions identified show a variable degree of remyelination ranged from 2 to 100% in the majority of lesions (mean area of remyelination approximately 50%) (FIGS. 10D-5). (p<0.001, 2-way ANOVA with Tukey test). Therefore while lesions were evident in all animals throughout the 40-day treatment period, N-[N-(3-pyridinesulfonyl)-L-3,3-dimethyl-4-thiaprolyl]-O-[1-methylpiperazin-4-ylcarbonyl]-L-tyrosine isopropyl ester increased the incidence and percentage of remyelination. Furthermore, evidence of remyelination in N-[N-(3-pyridinesulfonyl)-L-3,3-dimethyl-4-thiaprolyl]-O-[1-methylpiperazin-4-ylcarbonyl]-L-tyrosine isopropyl ester-treated animals is consistent with an observed regain of motor function. The starting point for treatment was a clinical score of 2, which denotes full bilateral hind limb paralysis. […] Functional recovery was never observed in control animals.

[4] = listed as N-[N-(3-pyridinesulfonyl)-L-3,3-dimethyl-4-thiaprolyl]-O-[1-methylpiperzain-4-yl

CC(C)OC(=O)[C@H](Cc1ccc(OC(=O)N2CCN(C)CC2)cc1)NC(=O)[C@H]1N(S(=O)(=O)c2cccnc2)CSC1(C)C [N-[N-(3-pyridinesulfonyl)-L-3,3-dimethyl-4-thiaprolyl]-O-[1-methylpiperazin-4-ylcarbonyl]-L-tyrosine isopropyl ester]
incidence of remyelination (lesions showing myelin pallor as percent of all lesions) vs saline ([1]; 10-40 days, time-dependent): increased the incidence of remyelination | appearance of spinal cord lesions after 10 days of treatment (solochrome-R-cyanin) ([1]; 10 days): minimal evidence of myelin pallor | appearance of spinal cord lesions after 20 days of therapy (solochrome-R-cyanin) [1]: many lesions exhibited diffuse pale blue staining | appearance of spinal cord lesions after 20 days of therapy (solochrome-R-cyanin) [1, 4]: diffuse blue stain covering the plaque | appearance of spinal cord lesions after 40 days of therapy (solochrome-R-cyanin) [1]: presented as shadow plaques | appearance of spinal cord lesions after 40 days of therapy (solochrome-R-cyanin) [1, 4]: majority of lesions showed clear myelin pallor | area of remyelination as percent of total lesion area ([1]; after 20, 30 or 40 days of therapy): 50% | degree of remyelination of individual lesions ([1]; after 20, 30 or 40 days of treatment): 0-100% | area of thinly myelinated axons in toluidine blue semithin sections vs saline [1]: greatly expanded | electron microscopy of lesioned spinal cord [1]: multiple thin myelin layers around large caliber axons | area of thinly myelinated axons in toluidine blue semithin sections vs saline [1, 4]: more extensive | electron microscopy of lesioned spinal cord [1, 4]: multiple layers of thin myelin wrappings around large diameter axons | animals that regained motor function ([1]; paralyzed guinea pigs (clinical score 2) treated up to 40 days): 50% | mean pathological score in each of four categories (meningeal inflammation, perivascular infiltration, encephalitis/myelitis, demyelination) vs saline ([2]; 10-40 days treatment, p<0.001 two-way ANOVA): significant decrease | spinal cord histology after 20 days of treatment (day 60 post immunization) [2]: much smaller areas of demyelination | spinal cord histology after 40 days of treatment (day 80 post immunization) [2]: almost no meningeal and perivascular infiltration | spinal cord histology after 20 days of treatment (day 60 post immunization) [2, 4]: much smaller area of demyelination | spinal cord histology after 40 days of treatment (day 80 post immunization) [2, 4]: almost no meningeal and perivascular inflammation | mean combined pathological score after withdrawal for 10 days vs continued treatment ([2]; p<0.05 Kruskal Wallis ANOVA on ranks with SNK test): significantly higher | receptor saturation levels maintained at all times (α4β1): > 10 nm | percentage of plaques exhibiting remyelination (frequency of shadow plaques in the spinal cord) ([3]; after 20 days of administration): 68% | percentage of plaques exhibiting remyelination (incidence) ([3]; after 30 days of administration): 77% | percentage of plaques exhibiting remyelination (incidence) ([3]; after 40 days of administration): 87% | treated animals in which paralysis was reversed to a clinical score of 1 ([3]; starting clinical score of 2 (full bilateral hind limb paralysis)): 50%

— patent US7576101B2, “Composition for and treatment of demyelinating diseases and paralysis by administration of remyelinating agents” (Elan Pharmaceuticals, Inc., priority 2003, dated 2009)
